In patent publication US20240360114A1 (SIRONAX LTD., priority 2021, published 2024):

System: HT-1080 cells
Test: HT-1080 cell viability assay (ferroptosis induced by RSL3, Cell Titer-Glo)
Assay type: cell-based
Conditions: Homo sapiens, HT-1080, 20 h, ferroptosis inducer RSL3, 20 hours, ferroptosis inhibitory activity, Table 2
Method in brief: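 EC50 fitted by sigmoidal dose-response regression on luminescent viability data normalized to untreated cells. Compounds ran as a 10-point, 3-fold series from 1.1 μM alongside RSL3 for 20 hours, after overnight seeding.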

Q: `CC(N)C1CCC(Nc2ccc(C3CCC(C)(C)CC3)cc2)CC1` (stereo not drawn) [Compound 140, N-(4-(1-aminoethyl)cyclohexyl)-4-(4,4-dimethylcyclohexyl)aniline] was tested. Which EC50 did it give?
A: 0.1 to 100 nM

Q: With `NC1CCC(Nc2ccc(Br)cc2)CC1` (stereo not drawn) [Compound 165, N1-(4-bromophenyl)cyclohexane-1,4-diamine] as the compound, how does the EC50 read?
A: 1000 to 10000 nM

Q: How did the EC50 turn out when `COCCOc1cc(NC2CCC(N)CC2)ccc1C(C)(C)C` (stereo not drawn) [Compound 301A, N1-(4-(tert-butyl)-3-(2-methoxyethoxy)phenyl)cyclohexane-1,4-diamine] was run?
A: 0.1 to 100 nM

Q: For `N[C@H]1CC[C@H](CCNc2ccc(N3CCC(C(F)(F)F)CC3)cc2F)CC1` [Compound 394, N-(2-((1r, 4r)-4-aminocyclohexyl)ethyl)-2-fluoro-4-(4-(trifluoromethyl)piperidin-1-yl)aniline], which EC50 is on record?
A: 0.1 to 100 nM

Q: With `CC(C)(C)c1ccc(NC2CCC(CNC(=N)N)CC2)cc1` (stereo not drawn) [Compound 344, 1-((4-((4-(tert-butyl)phenyl)amino)cyclohexyl)methyl)guanidine] as the compound, how does the EC50 read?
A: 0.1 to 100 nM

Q: Which EC50 does the source give for `CC(C)C1CCN(c2ccc(NC3CCC(N)CC3)nc2)CC1` (stereo not drawn) [Compound 406, N1-(5-(4-isopropylpiperidin-1-yl)pyridin-2-yl)cyclohexane-1,4-diamine] here?
A: 0.1 to 100 nM

Q: How did the EC50 turn out when `Cc1nc(N2C[C@@H](C)N(CC(F)(F)F)[C@@H](C)C2)ccc1NC1CCC(N)C1` (stereo partly drawn) [Compound 541, N1-(6-((3R,5S)-3,5-dimethyl-4-(2,2,2-trifluoroethyl)piperazin-1-yl)-2-methylpyridin-3-yl)cyclopentane-1,3-diamine] was run?
A: 0.1 to 100 nM

Q: Which EC50 does the source give for `CC(C)C1CCN(c2ncc(NC[C@H]3CC[C@H](NC(=O)C4CNC(=O)C4)CC3)cn2)CC1` (stereo partly drawn) [Compound 367, N-((1r,4r)-4-(((2-(4-isopropylpiperidin-1-yl)pyrimidin-5-yl)amino)methyl)cyclohexyl)-5-oxopy rrolidine-3-carboxamide] here?
A: 0.1 to 100 nM

Q: `CC1(C)CCC(c2ccc(NC3CC(C(N)=O)C3)cc2)CC1` (stereo not drawn) [Compound 145, 3-((4-(4,4-dimethylcyclohexyl)phenyl)amino)cyclobutane-1-carboxamide] was tested. Which EC50 did it give?
A: 0.1 to 100 nM

Q: `CN(C)CC1CCC(Nc2ccc(C3CCC(C)(C)CC3)cc2)CC1` (single isomer, unassigned) [Compound 97A, N-(4-((dimethylamino)methyl)cyclohexyl)-4-(4,4-dimethylcyclohexyl)aniline] was tested. Which EC50 did it give?
A: 0.1 to 100 nM

Q: Which EC50 does the source give for `CC1(C)CCC(c2ccc(NC3CCC(CCNC(N)=O)CC3)cc2)CC1` (stereo not drawn) [Compound 243] here?
A: 0.1 to 100 nM

Q: How did the EC50 turn out when `CC(C)(C)c1ccc(NC2CCC(CNCCO)CC2)cc1` (stereo not drawn) [Compound 322, 2-(((4-((4-(tert-butyl)phenyl)amino)cyclohexyl)methyl)amino)ethan-1-ol] was run?
A: 0.1 to 100 nM

Q: For `COCCc1ccc(NC2CCC(N)CC2)cc1CCOC` (stereo not drawn) [Compound 352, N1-(3,4-bis(2-methoxyethyl)phenyl)cyclohexane-1,4-diamine], which EC50 is on record?
A: 1000 to 10000 nM

Q: How did the EC50 turn out when `C[C@@H]1CN(c2ccc3cc(NC4CC5(CC(N)C5)C4)ccc3n2)C[C@H](C)O1` (stereo partly drawn) [Compound 565, N2-(2-((2S,6R)-2,6-dimethylmorpholino)quinolin-6-yl)spiro[3.3]heptane-2,6-diamine] was run?
A: 0.1 to 100 nM

Q: `CNC1CCC(Nc2ccc(C(C)(C)C)cc2)CC1` (stereo not drawn) [Compound 147, N1-(4-(tert-butyl)phenyl)-N4-methylcyclohexane-1,4-diamine] was tested. Which EC50 did it give?
A: 0.1 to 100 nM

Q: `Cc1cc(N2CCC(C(F)(F)F)CC2)ccc1NCC[C@H]1CC[C@H](N)CC1` [Compound 383, N-(2-((1r,4r)-4-aminocyclohexyl)ethyl)-2-methyl-4-(4-(trifluoromethyl)piperidin-1-yl)aniline] was tested. Which EC50 did it give?
A: 0.1 to 100 nM

Q: Which EC50 does the source give for `C[C@H](O)[C@@H](N)C(=O)NC1CCC(Nc2ccc(C3CCC(C)(C)CC3)cc2)CC1` (stereo partly drawn) [Compound 279, (2R, 3S)-2-amino-N-(4-((4-(4,4-dimethylcyclohexyl)phenyl)amino)cyclohexyl)-3-hydroxybutanamide] here?
A: 0.1 to 100 nM

Q: How did the EC50 turn out when `N[C@H]1CC[C@H](CNc2ccc3c(c2)CCC3)CC1` [Compound 308, N-(((1r,4r)-4-aminocyclohexyl)methyl)-2,3-dihydro-1H-inden-5-amine] was run?
A: 0.1 to 100 nM
